Tested on: lentiviral vector particles pseudotyped with the HIV-1 JRFL envelope glycoprotein
Assay: Single-round infection assay
Type: cell-based
Conditions: PM-1 cells; supernatants of transfected HEK 293T cells; eGFP positive cells by flow cytometry
Description: Virus production and titration: Viral vector supernatants were produced in HEK 293T cells. 6×10^6 cells were plated on 9.4 cm dishes 24 h prior to transfection. For transfection, the medium was changed and 25 μM chloroquine was added. 7.5 μg retroviral vector DNA was transfected by the calcium phosphate precipitation method. To generate GaLV pseudotyped retroviral particles 2 μg pALF-GaLV CM (GaLV CM expression plasmid; Stitz et al., Virology 2000) and 12.5 μg M57-DAW (MuLV gag/pol expression plasmid; Schambach et al., Gene Ther 2006) were transfected in addition. For the production of lentiviral vectors encoding eGFP, and pseudotyped with the HIV-1 JRFL envelope glycoprotein 7.5 μg pHR′SIN-cPPT-SEW-new (SIN lentiviral vector encoding eGFP), 12.5 μg pCMV-dR8.91 (lentiviral gag/pol expression plasmid), and 1 μg M118 (HIV-1 JRFL expression plasmid) were co-transfected. Medium was changed after 6-8 h incubation. […] In the case of lentiviral vectors expressing eGFP, vector titers were determined by transducing predefined numbers of PM-1 cells with serial dilutions of vector supernatant and analyzing the percentage of eGFP positive cells by flow cytometry. For retroviral vectors expressing secreted peptides transduced cells were analyzed by intracellular immunostaining for the peptide of interest. […]

For “WQQWERQVRFLDANITKLLEEAQIQQEKNMYELQELDKWASLWNWF [C46-EHO]”, the “antiviral (inhibitory) activity of supernatants containing secreted peptides” value was “slightly reduced”.
